Tested on: eosinophil
Experiment: Eosinophil count in peripheral blood of the prostate cancer subject
Conditions: Claritin in addition to Allegra from July 1, 2016

`CC(C)(C(=O)O)c1ccc(C(O)CCCN2CCC(C(O)(c3ccccc3)c3ccccc3)CC2)cc1` (stereo not shown) [Allegra, fexofenadine] was tested, and the “eosinophil count in peripheral blood, change in words” value was “started to decrease”.

— US11959916B2, “Method, system, and program for supplying immunodynamics-related information” (priority 2017, dated 2024)
